Data reported in paper PMC11943675, “Studies of Piper auritum Kuntz’s Mutagenic and Antimutagenic Properties Using the Ames Test” (Metabolites, 2025).
Where “and” joins values, the source holds several entries; their conditions need not be identical. Equal entries are not always repeated. Where two headings read alike, the source gives them in different places.

Experiments:
[1] = tested on: S. typhimurium TA100; assay: Ames test (Salmonella/microsome mutagenicity assay), strain TA100; type: cell-based, Salmonella typhimurium
Protocol: (§1) The study was carried out according to the indications of Maron and Ames, as well as with the recommendations expressed by the OCDE with respect to this assay. The Salmonella typhimurium strains used were TA98, TA100, TA102, TA1535, and TA1537.
(§2) In this case, the concentrations used were 10, 50, 100, 500, and 1000 µg/plate. Both studies were performed without and with the inclusion of the S9 fraction. In the last case, the S9 fraction was mixed with 5 mM glucose-6 phosphate, 4 mM NADPH, 8 mM MgCl2, and phosphate buffer at pH 7.4. The reaction mixture with or without S9 was placed in Petri dishes containing minimum agar plus glucose and Vogel–Bonner salts and left at 37 °C for 48 h. Finally, the number of revertant colonies (His^+) in each treatment was counted. Importantly, we used different mutagens as positive controls depending on the strain.
(§3) The toxicity of the tested agents was assessed by observing background bacterial growth on minimal agar plates due to traces of histidine in the medium.

[2] = tested on: S. typhimurium TA98; assay: Ames test (Salmonella/microsome mutagenicity assay), strain TA98; type: cell-based, Salmonella typhimurium
Protocol: as §1, §2, §3

[3] = tested on: S. typhimurium TA102; assay: Ames test (Salmonella/microsome mutagenicity assay), strain TA102; type: cell-based, Salmonella typhimurium
Protocol: as §1, §2, §3

[4] = tested on: S. typhimurium TA1535; type: cell-based, Salmonella typhimurium; conditions: positive mutagen
Protocol: as §1, §2, §3

[5] = tested on: S. typhimurium TA1537; assay: Ames test (Salmonella/microsome mutagenicity assay), strain TA1537; type: cell-based, Salmonella typhimurium
Protocol: as §1, §2, §3

[6] = tested on: strain TA98 of S. typhimurium; conditions: cited from earlier work
[7] = tested on: S. typhimurium TA98; conditions: strain TA98; cited from earlier work
[8] = target: T1, human CYP1A1 (Homo sapiens, UniProt P04798); assay: biochemical
T1 sequence (P04798 1-512): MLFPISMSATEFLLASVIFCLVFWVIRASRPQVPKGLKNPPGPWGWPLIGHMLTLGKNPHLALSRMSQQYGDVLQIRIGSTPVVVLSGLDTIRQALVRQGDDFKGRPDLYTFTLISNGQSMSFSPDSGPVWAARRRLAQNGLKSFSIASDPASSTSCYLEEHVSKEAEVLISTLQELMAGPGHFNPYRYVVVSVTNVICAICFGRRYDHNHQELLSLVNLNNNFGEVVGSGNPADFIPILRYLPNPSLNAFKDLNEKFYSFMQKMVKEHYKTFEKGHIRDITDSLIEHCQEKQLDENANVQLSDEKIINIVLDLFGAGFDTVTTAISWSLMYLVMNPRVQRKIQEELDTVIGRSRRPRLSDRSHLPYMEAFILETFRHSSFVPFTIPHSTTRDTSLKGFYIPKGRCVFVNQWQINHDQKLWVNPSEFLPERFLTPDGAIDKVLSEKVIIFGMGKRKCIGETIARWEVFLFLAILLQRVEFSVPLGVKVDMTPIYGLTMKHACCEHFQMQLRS
Protocol: (§4) The protein content was estimated via the Bradford assay.
(§5) To determine the type of inhibition, an incubation volume of 200 μL containing human CYP1A1 bacterial membranes (80 μg) and 0.5 mM NADPH in buffer pH 7.6 (50 mM Tris–HCl and 25 mM MgCl2) was used.

[9] = tested on: Salmonella typhimurium; conditions: cited from earlier work
[10] = tested on: mouse bone marrow; conditions: cited from earlier work
[11] = tested on: Salmonella typhimurium strains TA98, TA100, TA102, TA1535, and TA1537; assay: Ames test, overall verdict over the five strains; type: cell-based
Protocol: as §1, §2, §3

[12] = target: T1, human CYP1A1; conditions: nonlinear regression and Lineweaver–Burk plots
Protocol: as §4, §5

[13] = tested on: rat hepatocytes; conditions: cited from earlier work

## O=[N+]([O-])c1ccc2c(c1)Cc1ccccc1-2 [2-nitrofluorene, reference compound]
[1]; positive mutagen, TA100 (−S9), 5 µg
  His^+ Revertants: 1909 ± 428 ^1
[2]; positive mutagen, TA98 (−S9), 5 µg
  His^+ Revertants: 2419 ± 169 ^1 and 2070 ± 44 ^1

## Nc1ccc2cc3ccccc3cc2c1 [aminoanthracene, 2-aminoanthracene, reference compound]
[3]; positive mutagen, TA102 (+S9), 5 µg
  His^+ Revertants: 2080 ± 27 ^7
[4]; TA1535 (+S9), 2 µg
  His^+ Revertants: 371 ± 20 ^4
[5]; positive mutagen, TA1537 (+S9), 2 µg
  His^+ Revertants: 120 ± 12 ^4

## CC1=NN(c2ccc([N+](=O)[O-])cc2)C(=O)C1[N+](=O)[O-] (stereo not drawn) [picrolonic acid, reference compound]
[5]; positive mutagen, TA1537 (−S9), 100 µg
  His^+ Revertants: 63 ± 2 ^5

## C=CCc1ccc2c(c1)OCO2 [safrole, 5-(2-propenyl)-1,3-benzodioxone]
[6]
  antimutagenic potential against heterocyclic aromatic amines: strong antimutagenic potential
[7]
  mutagenicity: no mutagenicity
[1]; TA100 (+S9), 10 μg/plate
  His^+ Revertants: 97 ± 18
[1]; TA100 (+S9), 50 μg/plate
  His^+ Revertants: 108 ± 18
[1]; TA100 (+S9), 100 μg/plate
  His^+ Revertants: 105 ± 9
[1]; TA100 (+S9), 500 μg/plate
  His^+ Revertants: 108 ± 9
[1]; TA100 (+S9), 1000 μg/plate
  His^+ Revertants: 102 ± 9
[1]; TA100 (−S9), 10 μg/plate
  His^+ Revertants: 110 ± 16
[1]; TA100 (−S9), 50 μg/plate
  His^+ Revertants: 120 ± 17
[1]; TA100 (−S9), 100 μg/plate
  His^+ Revertants: 107 ± 10
[1]; TA100 (−S9), 500 μg/plate
  His^+ Revertants: 100 ± 17
[1]; TA100 (−S9), 1000 μg/plate
  His^+ Revertants: 112 ± 6
[8]
  Ki: 380 nM
[2]; TA98 (+S9), 10 μg/plate
  His^+ Revertants: 20 ± 2
[2]; TA98 (+S9), 50 μg/plate
  His^+ Revertants: 34 ± 8
[2]; TA98 (+S9), 100 μg/plate
  His^+ Revertants: 38 ± 9
[2]; TA98 (+S9), 500 μg/plate
  His^+ Revertants: 26 ± 9
[2]; TA98 (+S9), 1000 μg/plate
  His^+ Revertants: 36 ± 7
[2]; TA98 (−S9), 10 μg/plate
  His^+ Revertants: 19 ± 3
[2]; TA98 (−S9), 50 μg/plate
  His^+ Revertants: 22 ± 7
[2]; TA98 (−S9), 100 μg/plate
  His^+ Revertants: 27 ± 4
[2]; TA98 (−S9), 500 μg/plate
  His^+ Revertants: 18 ± 3
[2]; TA98 (−S9), 1000 μg/plate
  His^+ Revertants: 22 ± 9
[9]
  mutagenicity, Ames test: negative
[3]; TA102 (+S9), 10 μg/plate
  His^+ Revertants: 573 ± 6
[3]; TA102 (+S9), 50 μg/plate
  His^+ Revertants: 558 ± 14
[3]; TA102 (+S9), 100 μg/plate
  His^+ Revertants: 520 ± 10
[3]; TA102 (+S9), 500 μg/plate
  His^+ Revertants: 477 ± 17
[3]; TA102 (+S9), 1000 μg/plate
  His^+ Revertants: 504 ± 12
[3]; TA102 (−S9), 10 μg/plate
  His^+ Revertants: 502 ± 4
[3]; TA102 (−S9), 50 μg/plate
  His^+ Revertants: 489 ± 19
[3]; TA102 (−S9), 100 μg/plate
  His^+ Revertants: 484 ± 13
[3]; TA102 (−S9), 500 μg/plate
  His^+ Revertants: 451 ± 18
[3]; TA102 (−S9), 1000 μg/plate
  His^+ Revertants: 512 ± 40
[10]
  mutagenicity, mouse bone marrow micronuclei assay: negative
[11]; tested concentrations
  toxicity (background bacterial growth): absence of toxicity
[11]; with and without S9
  mutagenic potential: absence of a mutagenic effect
[12]
  type of inhibition: competitive inhibition
[13]
  DNA adducts and chromosomal aberrations: induction of DNA adducts and chromosomal aberrations
  gene mutations: no gene mutations
[5]; TA1537 (+S9), 10 μg/plate
  His^+ Revertants: 12 ± 3
[5]; TA1537 (+S9), 50 μg/plate
  His^+ Revertants: 10 ± 3
[5]; TA1537 (+S9), 100 μg/plate
  His^+ Revertants: 10 ± 1
[5]; TA1537 (+S9), 500 μg/plate
  His^+ Revertants: 11 ± 4
[5]; TA1537 (+S9), 1000 μg/plate
  His^+ Revertants: 9 ± 3
[5]; TA1537 (−S9), 10 μg/plate
  His^+ Revertants: 10 ± 3
[5]; TA1537 (−S9), 50 μg/plate
  His^+ Revertants: 14 ± 4
[5]; TA1537 (−S9), 100 μg/plate
  His^+ Revertants: 10 ± 1
[5]; TA1537 (−S9), 500 μg/plate
  His^+ Revertants: 12 ± 3
[5]; TA1537 (−S9), 1000 μg/plate
  His^+ Revertants: 11 ± 4

## [N-]=[N+]=[N-].[Na+] [sodium azide]
[4]; TA1535 (−S9), 1 µg
  His^+ Revertants: 481 ± 28 ^3
